Experimental data: paper PMC12281475, “Mediator Kinase Inhibitor Selectivity and Activity in Colorectal Cancer” (ACS Chemical Biology, 2025)

System: COLO205 cells
Experiment: Phospho-proteome profiling (CDK-motif antibody enrichment, LC-MS/MS)
Format: cell-based, human
Settings: for CMPD 1/DMSO / MEAN MS SIGNAL CMPD 1 6 H: 6 H
Excerpt: We phospho-proteome profiled COLO205 cells to identify Mediator kinase substrates following chemical inhibition of Mediator kinase activity. Given the confirmed CDK8/19 selectivity of our compounds in binding and enzymatic activity assays, we employed a pool of antibodies selective for the proline-rich motifs phosphorylated by the CDK family to enrich potential CDK8/19 substrates for LC-MS/MS analysis.
Adherent COLO205 cells were lysed with a urea buffer, lysates were reduced with DTT, alkylated with iodoacetimide and digested with trypsin-tosylphenylalanyl chloromethyl ketone. Digested peptides were immunoprecipitated using a pool of motif antibodies from Cell Signaling Technologies (US) comprising: phospho-MAPK substrate (PXS*P or S*PXR/K, #2325, RRID:AB_331820), phospho-CDKs substrate ((K/H)-S*P, #2324; RRID:AB_2244779), phospho-PLK binding motif (ST*P, #5243; RRID:AB_10891778) and phospho-tPE motif (T*PE, #3004; RRID:AB_10890649)-of phospho-MAPK (2325), phospho-CDK (2324), phospho-PLK (5243) and phospho-tPE (C3004) motif-recognizing antibodies immobilized onto protein A/G beads. Immunoprecipitated peptides were analyzed using an LTQ-Orbitrap-Velos. Sequences were assigned to the MS/MS spectra and evaluated using SEQUEST 3G and SORCERER 2 (Sage-N Research v4.0, Milpitas). Quantitative data was evaluated and clustered in Spotfire Decision Site (www.spotfire.tibco.com) and normalized using quartile normalization. Functional annotation and pathway analysis used DAVID (https://david.ncifcrf.gov/). […]
Phospho-proteome analyses
Adherent COLO205 cells were washed with PBS and cells lysed using urea lysis buffer (9 M Urea, 20 mM HEPES, pH 8.0, 1 mM beta-glycerophosphate, 1 mM sodium vanadate, 2.5 mM sodium pyrophosphate) and stored at -80 °C prior to analysis. The supernatants were reduced with 100 mM DTT for 30 minutes at 55 °C, followed by alkylation with 50 mM iodoacetimide for 15 minutes at ambient temperature in the dark.
The samples were diluted in 20 mM HEPES, pH 8.0 and digested overnight with 10 ug/mL trypsin-tosylphenylalanyl chloromethyl ketone in 1 mM HCl. Digested peptides were acidified with 1% formic acid and then desalted over 360-mg SEP PAK C18 columns (Waters, UK). Peptides were eluted with 40% acetonitrile in 0.125% formic acid, dried under a vacuum and the lyophilised peptides used for immunoprecipitation.
A pool of motif antibodies from Cell Signaling Technologies (US) comprising: phospho-MAPK substrate (PXS*P or S*PXR/K, #2325, RRID:AB_331820), phospho-CDKs substrate ((K/H)S*P, #2324; RRID:AB_2244779), phospho-PLK binding motif (ST*P, […]
RRID:AB_10890649), were immobilised onto protein A/G beads overnight at 4 °C. The lyophilised peptides were resuspended in MOPS buffer (50 mM MOPS, pH 7.2, 10 mM KH2PO4, 50 mM NaCl) and centrifuged for 5 mins at 13,500 rpm in an Eppendorf benchtop microcentrifuge. The supernatants were incubated with the motif-bound beads for 2.5 hours at 4 °C . The beads were harvested by centrifugation at 4000 rpm in an Eppendorf benchtop microcentrifuge for 5 mins, washed with MOPS buffer twice and washed again 5 times with deionised water. The peptides were eluted off the beads using 0.125% formic acid, were desalted and dried under a vacuum. The lyophilised immunoprecipitated peptides were resuspended in 0.125% formic acid and separated on a capillary column packed with Magic C18 AQ reversed-phase resin.
Peptides were eluted using a 72-minute linear gradient of acetonitrile in 0.125% formic acid delivered at 280nL/min. Samples were analysed using an LTQ-Orbitrap-Velos.
MS Parameter Settings were: MS Run Time 96 min, MS1 Scan Range (300.0 – 1500.00), Top 20 MS/MS (Min Signal 500, Isolation Width 2.0, Normalized Coll.
Charge State Rejection Enabled, Charge State 1+ Rejected, Dynamic Exclusion Enabled, Repeat Count 1, Repeat Duration 35.0, Exclusion List Size 500, Exclusion Duration 40.0, Exclusion Mass Width Relative to Mass, Exclusion Mass Width 10ppm). […]

[1] = AHCTF1 peptide 1205/1240 - STlrSTplaSpspSpgrSpqr - 1225/1265
[2] = AHNAK peptide 5778 - hrSnSfSderefSgpsTpTglefeggevsleggk - 5811
[3] = AKNA peptide 429 - vpqefqTpeqatelvhqlqedyhr - 452
[4] = ANLN peptide 381 - cqehSkeSparsTphrTpiiTpntk - 405
[5] = ARHGAP19 peptide 443 - knpTpesvaigelk - 456
[6] = ARID4B peptide 922/1008 - kaefpssgsnsvlnTpptTpespssvtvtegsr - 954/1040
[7] = ATN1 peptide 158 - pyhppplfppSpqppdstpr - 177
[8] = BAP1 peptide 513 - sanptrpsSpvtshisk - 529
[9] = BCL11B peptide 367 - lrelagnSSTpppvSpgrgnpmhr - 390
[10] = CC2D1A peptide 200 - gpasTpTySpaptqpapr - 217
[11] = CDT1 peptide 72 - lsvdevsSpstpeapdipacpspgqk - 97
[12] = CDT1 peptide 72 - lsvdevsspsTpeapdipacpSpgqk - 97
[13] = CHAMP1 peptide 198 - lapvpspepqkpapvSpesvk - 219
[14] = CHD4 peptide 1530 - mSqpgSpSpkTpTpSTpgdTqpnTpapvppaedgik - 1565
[15] = CHD4 peptide 1531 - SqpgSpSpkTptpstpgdtqpntpapvppaedgik - 1565
[16] = CHD4 peptide 1540 - TpTpSTpgdtqpnTpapvppaedgik - 1565
[17] = CHD4 peptide 1540 - TptpStpgdtqpnTpapvppaedgikieenslk - 1572
[18] = ECT2 peptide 403 - krpSaehSlSigSlldiSnTpeSsinYgdtpk - 434
[19] = EEF1G peptide 379 - gqelafplSpdwqvdyesytwr - 100
[20] = EGR1 peptide 6 - aemqlmsplqisdpfgsfphSptmdnypk -34
[21] = EGR1 peptide 6 - aemqlmsplqisdpfgsfphspTmdnypk - 34
[22] = EPC2 peptide 343 - aealitsqqpTpetlpvink - 362

In the case of Cn1cc(-c2ccc(-c3cncc(Cl)c3N3CCC4(CCNC4=O)CC3)cc2)cn1 [CCT251545], the “CMPD 1/DMSO” value [1] is reported as 1.802, the “MEAN MS SIGNAL CMPD 1 6 H” value [1] is reported as 238204 and the “CMPD 1/DMSO” value [2] is reported as 1.997. The “MEAN MS SIGNAL CMPD 1 6 H” value [2] was 301575, the “CMPD 1/DMSO” value [3] was 0.569 and the “MEAN MS SIGNAL CMPD 1 6 H” value [3] was 41850. For the same molecule, the “CMPD 1/DMSO” value [4] was 0.512, the “MEAN MS SIGNAL CMPD 1 6 H” value [4] was 62532 and the “CMPD 1/DMSO” value [5] was 0.589. The “MEAN MS SIGNAL CMPD 1 6 H” value [5] was 62950, the “CMPD 1/DMSO” value [6] was 2.069 and the “MEAN MS SIGNAL CMPD 1 6 H” value [6] was 72000. For the same molecule, the “CMPD 1/DMSO” value [7] was 0.526, the “MEAN MS SIGNAL CMPD 1 6 H” value [7] was 1231725 and the “CMPD 1/DMSO” value [8] was 1.826. For the same molecule, the “MEAN MS SIGNAL CMPD 1 6 H” value [8] was 26677, the “CMPD 1/DMSO” value [9] was 1.888 and the “MEAN MS SIGNAL CMPD 1 6 H” value [9] was 33472. For the same molecule, the “CMPD 1/DMSO” value [10] was 0.625, the “MEAN MS SIGNAL CMPD 1 6 H” value [10] was 70653 and the “CMPD 1/DMSO” value [11] was 0.368. For the same molecule, the “MEAN MS SIGNAL CMPD 1 6 H” value [11] was 55322, the “CMPD 1/DMSO” value [12] was 0.429 and the “MEAN MS SIGNAL CMPD 1 6 H” value [12] was 15418. For the same molecule, the “CMPD 1/DMSO” value [13] was 2.031, the “MEAN MS SIGNAL CMPD 1 6 H” value [13] was 849660 and the “CMPD 1/DMSO” value [14] was 0.456. For the same molecule, the “MEAN MS SIGNAL CMPD 1 6 H” value [14] was 51533, the “CMPD 1/DMSO” value [15] was 0.310 and the “MEAN MS SIGNAL CMPD 1 6 H” value [15] was 35479. For the same molecule, the “CMPD 1/DMSO” value [16] was 0.193, the “MEAN MS SIGNAL CMPD 1 6 H” value [16] was 31383 and the “CMPD 1/DMSO” value [17] was 0.000. The “MEAN MS SIGNAL CMPD 1 6 H” value [17] was 0, the “abundance of phospho-peptide corresponding to phospho-STAT1 SER727” value (COLO205, 350 nM, 6 h) was “decrease in abundance” and the “phospho-peptides whose label-free intensities remained unchanged” value (COLO205, 350 nM, 6 h) was 95%. The “phosphorylation at MED13 THR565, MED14 SER1112 and MED26 SER314” value (COLO205, 350 nM, 6 h) was “reducing phosphorylation”, the “phosphorylation of POLR2A CTD phospho-peptides” value (COLO205, 350 nM, 6 h) was “no evidence of decreased phosphorylation” and the “number of phospho-peptides consistently decreased by > 1.5-fold” value (COLO205, 350 nM, 6 h, both independent biological repeats, 2,734 phospho-peptides identified) was 123. The “number of individual proteins represented by the decreased phospho-peptides” value (COLO205, 350 nM, 6 h, > 1.5-fold decrease) was 95, the “CMPD 1/DMSO” value [18] was 0.501 and the “MEAN MS SIGNAL CMPD 1 6 H” value [18] was 22710. The “CMPD 1/DMSO” value [19] was 0.521, the “MEAN MS SIGNAL CMPD 1 6 H” value [19] was 184020 and the “CMPD 1/DMSO” value [20] was 0.400. The “MEAN MS SIGNAL CMPD 1 6 H” value [20] was 23807, the “CMPD 1/DMSO” value [21] was 0.452 and the “MEAN MS SIGNAL CMPD 1 6 H” value [21] was 16379. For the same molecule, the “CMPD 1/DMSO” value [22] was 0.365, the “MEAN MS SIGNAL CMPD 1 6 H” value [22] was 24823 and the “CMPD 1/DMSO” value (EZH2 peptide 46 - grlpnnssrpstpTinvlesk - 376) was 1.970.
